Active and inactive are the calls of the source.

One experiment concerns Streptococcus. The experiment in a line: Group A Streptococcus viability loss, dose response, counter-screen for streptokinase expression inhibitor project, luminescence, BacTiterGlo (AID 1915).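 Note: potency for reduction of bacterial viability or growth.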 The format is functional, organism-based. A general note: The purpose of a counterscreen is to sort out artefacts and off-target activity.
The next experiment deals with T1, Streptokinase A (Streptococcus pyogenes serotype M1, UniProt P10520).
T1 sequence (P10520 whole entry): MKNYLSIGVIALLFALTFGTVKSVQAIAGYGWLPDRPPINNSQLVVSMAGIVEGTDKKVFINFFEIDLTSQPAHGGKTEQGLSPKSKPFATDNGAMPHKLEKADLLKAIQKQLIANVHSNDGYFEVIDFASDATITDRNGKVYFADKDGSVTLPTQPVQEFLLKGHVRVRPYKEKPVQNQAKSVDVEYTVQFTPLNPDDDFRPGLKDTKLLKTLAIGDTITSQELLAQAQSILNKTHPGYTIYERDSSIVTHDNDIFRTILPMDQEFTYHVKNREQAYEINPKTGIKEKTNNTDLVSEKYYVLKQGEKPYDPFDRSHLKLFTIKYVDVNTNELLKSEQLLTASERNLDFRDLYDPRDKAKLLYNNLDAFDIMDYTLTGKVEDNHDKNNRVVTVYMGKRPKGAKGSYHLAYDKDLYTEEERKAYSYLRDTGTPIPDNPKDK
Description: S. pyogenes streptokinase expression inhibitors, potency, dose response, plasminogen activation absorbance, OD405 (AID 1914).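 Note: secreted streptokinase activity via plasminogen activation per viability signal from cell pellet.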 It is filed as functional, Streptococcus pyogenes M1 GAS.

For experiment [1], the system named is Streptococcus sp. 'group A'. The experiment in a line: growth inhibition of control SK(-) GAS strain, dose response, counter-screen for streptokinase expression inhibitor project, luminescence, kanamycin, BacTiterGlo, confirmation (AID 1900). The format is functional, organism-based.
The target in experiment [2] is Serine/threonine-protein phosphatase (Homo sapiens, UniProt Q9BPW0). Description: Counterscreen for inhibitors of PP1: fluorescence-based biochemical high throughput dose response assay to identify inhibitors of Protein Phosphatase 5 (PP5). [Related pubchem assays: 2034 (Summary (PP5 inhibitors)), 1987 (PP5 inhibitors in singlate), 2235 (PP1 inhibitors in singlate)].
Chain of Serine/threonine-protein phosphatase (Q9BPW0 whole entry): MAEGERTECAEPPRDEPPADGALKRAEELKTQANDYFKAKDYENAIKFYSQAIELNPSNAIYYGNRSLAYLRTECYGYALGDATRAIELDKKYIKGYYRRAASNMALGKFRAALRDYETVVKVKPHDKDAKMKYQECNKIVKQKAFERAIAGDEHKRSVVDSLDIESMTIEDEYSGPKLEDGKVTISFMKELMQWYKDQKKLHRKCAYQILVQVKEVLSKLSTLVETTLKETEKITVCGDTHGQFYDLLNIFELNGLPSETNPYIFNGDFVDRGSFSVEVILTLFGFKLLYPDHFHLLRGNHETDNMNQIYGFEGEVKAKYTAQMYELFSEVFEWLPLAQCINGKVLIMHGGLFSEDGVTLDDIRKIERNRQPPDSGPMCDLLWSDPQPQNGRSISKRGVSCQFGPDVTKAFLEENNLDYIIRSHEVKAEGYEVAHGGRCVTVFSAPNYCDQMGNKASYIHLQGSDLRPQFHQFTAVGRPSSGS

The target in experiment [3] is Induced myeloid leukemia cell differentiation protein Mcl-1 (Homo sapiens, UniProt Q07820). The format is functional.
Chain of Induced myeloid leukemia cell differentiation protein Mcl-1 (Q07820 whole entry): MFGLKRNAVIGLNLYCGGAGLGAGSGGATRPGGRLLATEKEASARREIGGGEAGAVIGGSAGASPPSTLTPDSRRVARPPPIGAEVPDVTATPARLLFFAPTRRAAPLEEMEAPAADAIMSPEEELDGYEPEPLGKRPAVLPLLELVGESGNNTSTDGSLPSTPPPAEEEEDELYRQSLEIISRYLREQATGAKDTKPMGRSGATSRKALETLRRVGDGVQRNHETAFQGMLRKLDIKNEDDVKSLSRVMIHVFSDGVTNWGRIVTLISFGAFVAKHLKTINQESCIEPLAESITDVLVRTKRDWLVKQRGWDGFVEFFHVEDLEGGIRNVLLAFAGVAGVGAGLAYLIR
The target in experiment [4] is Serine/threonine-protein phosphatase PP1-alpha catalytic subunit (Homo sapiens, UniProt P62136). The experiment in a line: PP1 phosphatase inhibitors, dose response, biochemical, fluorescence (AID 2403).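 Note: phosphatase turnover of OMFP into fluorescent 3-O-methylfluorescein.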
Chain of Serine/threonine-protein phosphatase PP1-alpha catalytic subunit (P62136 whole entry): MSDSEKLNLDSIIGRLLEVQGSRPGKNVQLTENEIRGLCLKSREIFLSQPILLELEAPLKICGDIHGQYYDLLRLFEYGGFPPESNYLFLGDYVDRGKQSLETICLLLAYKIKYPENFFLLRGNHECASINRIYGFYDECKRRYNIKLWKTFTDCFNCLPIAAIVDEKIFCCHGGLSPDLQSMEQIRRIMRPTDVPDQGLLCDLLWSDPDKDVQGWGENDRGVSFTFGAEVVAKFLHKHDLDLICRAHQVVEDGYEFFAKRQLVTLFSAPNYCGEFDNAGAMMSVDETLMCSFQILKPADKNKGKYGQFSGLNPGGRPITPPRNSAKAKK
In the next experiment the target is T2, Aminopeptidase N (Plasmodium falciparum FcB1/Columbia, UniProt O96935).
T2 sequence (O96935 whole entry): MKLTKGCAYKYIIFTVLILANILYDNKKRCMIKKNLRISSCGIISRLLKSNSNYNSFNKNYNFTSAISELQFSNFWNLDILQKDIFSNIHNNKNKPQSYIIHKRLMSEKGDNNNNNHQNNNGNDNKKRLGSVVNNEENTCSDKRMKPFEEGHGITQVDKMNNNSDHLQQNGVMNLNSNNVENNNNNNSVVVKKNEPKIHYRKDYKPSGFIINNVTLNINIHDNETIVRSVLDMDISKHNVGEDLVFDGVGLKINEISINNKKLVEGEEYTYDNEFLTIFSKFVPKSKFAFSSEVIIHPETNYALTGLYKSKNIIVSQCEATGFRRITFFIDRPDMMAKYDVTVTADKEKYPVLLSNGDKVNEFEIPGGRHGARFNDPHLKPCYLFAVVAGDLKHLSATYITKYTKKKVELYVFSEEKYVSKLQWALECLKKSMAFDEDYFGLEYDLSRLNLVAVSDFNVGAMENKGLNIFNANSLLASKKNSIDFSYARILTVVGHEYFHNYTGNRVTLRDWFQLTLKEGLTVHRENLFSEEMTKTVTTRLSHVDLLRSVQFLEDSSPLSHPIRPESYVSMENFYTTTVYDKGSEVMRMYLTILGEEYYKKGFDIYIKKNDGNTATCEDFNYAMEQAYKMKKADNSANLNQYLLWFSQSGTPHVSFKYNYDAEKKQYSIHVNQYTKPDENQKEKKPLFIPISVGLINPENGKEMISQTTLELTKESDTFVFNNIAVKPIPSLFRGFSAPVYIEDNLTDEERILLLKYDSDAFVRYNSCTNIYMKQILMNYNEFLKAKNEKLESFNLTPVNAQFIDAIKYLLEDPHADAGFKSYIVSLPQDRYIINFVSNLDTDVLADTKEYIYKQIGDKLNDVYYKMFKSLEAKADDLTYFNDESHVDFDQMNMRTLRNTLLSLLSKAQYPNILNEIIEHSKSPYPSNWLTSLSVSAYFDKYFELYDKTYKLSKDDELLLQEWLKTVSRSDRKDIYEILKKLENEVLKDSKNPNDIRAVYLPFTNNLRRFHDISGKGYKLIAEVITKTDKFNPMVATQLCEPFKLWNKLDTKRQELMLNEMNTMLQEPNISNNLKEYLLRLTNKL
The experiment in a line: P. falciparum M1AAP inhibitors, biochemical, fluorogenic H-Leu-NHMec substrate, 1536-well (AID 1445). Details: species or system Plasmodium falciparum 3D7, 3D7.

Another experiment deals with T3, Leucine aminopeptidase (Plasmodium falciparum 3D7, UniProt Q8IL11).
T3 sequence (Q8IL11 whole entry): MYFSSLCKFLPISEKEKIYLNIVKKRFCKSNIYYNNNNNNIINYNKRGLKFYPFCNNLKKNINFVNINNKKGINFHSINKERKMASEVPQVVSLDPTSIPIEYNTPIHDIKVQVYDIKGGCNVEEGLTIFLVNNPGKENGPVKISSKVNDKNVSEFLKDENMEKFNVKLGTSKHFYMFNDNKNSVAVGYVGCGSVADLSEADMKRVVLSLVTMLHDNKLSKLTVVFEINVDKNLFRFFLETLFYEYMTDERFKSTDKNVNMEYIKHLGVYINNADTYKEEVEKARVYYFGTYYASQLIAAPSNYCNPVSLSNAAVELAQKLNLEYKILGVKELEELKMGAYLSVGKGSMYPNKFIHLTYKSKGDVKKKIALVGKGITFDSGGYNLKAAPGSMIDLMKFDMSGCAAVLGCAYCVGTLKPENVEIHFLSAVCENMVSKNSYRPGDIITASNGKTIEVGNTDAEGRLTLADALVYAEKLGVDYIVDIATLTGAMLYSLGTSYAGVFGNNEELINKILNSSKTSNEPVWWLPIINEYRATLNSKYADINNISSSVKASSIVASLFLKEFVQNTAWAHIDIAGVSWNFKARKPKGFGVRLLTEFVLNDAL
The experiment in a line: P. falciparum M17LAP inhibitors, primary screen, biochemical, fluorogenic H-Leu-NHMec substrate, 1536-well (AID 1619). It is filed as functional.

Experiment [5] in a line: inhibitors of Bluetongue virus cytopathic effect, confirmation, arbovirus, BSR cells (AID 1250).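 Note: protection from viral cytopathic effect measured as cell viability by ATP luminescence.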 It is filed as functional.
Experiment [6] concerns the target T4, Short transient receptor potential channel 4 (Mus musculus, UniProt Q9QUQ5).
T4 sequence (Q9QUQ5 whole entry): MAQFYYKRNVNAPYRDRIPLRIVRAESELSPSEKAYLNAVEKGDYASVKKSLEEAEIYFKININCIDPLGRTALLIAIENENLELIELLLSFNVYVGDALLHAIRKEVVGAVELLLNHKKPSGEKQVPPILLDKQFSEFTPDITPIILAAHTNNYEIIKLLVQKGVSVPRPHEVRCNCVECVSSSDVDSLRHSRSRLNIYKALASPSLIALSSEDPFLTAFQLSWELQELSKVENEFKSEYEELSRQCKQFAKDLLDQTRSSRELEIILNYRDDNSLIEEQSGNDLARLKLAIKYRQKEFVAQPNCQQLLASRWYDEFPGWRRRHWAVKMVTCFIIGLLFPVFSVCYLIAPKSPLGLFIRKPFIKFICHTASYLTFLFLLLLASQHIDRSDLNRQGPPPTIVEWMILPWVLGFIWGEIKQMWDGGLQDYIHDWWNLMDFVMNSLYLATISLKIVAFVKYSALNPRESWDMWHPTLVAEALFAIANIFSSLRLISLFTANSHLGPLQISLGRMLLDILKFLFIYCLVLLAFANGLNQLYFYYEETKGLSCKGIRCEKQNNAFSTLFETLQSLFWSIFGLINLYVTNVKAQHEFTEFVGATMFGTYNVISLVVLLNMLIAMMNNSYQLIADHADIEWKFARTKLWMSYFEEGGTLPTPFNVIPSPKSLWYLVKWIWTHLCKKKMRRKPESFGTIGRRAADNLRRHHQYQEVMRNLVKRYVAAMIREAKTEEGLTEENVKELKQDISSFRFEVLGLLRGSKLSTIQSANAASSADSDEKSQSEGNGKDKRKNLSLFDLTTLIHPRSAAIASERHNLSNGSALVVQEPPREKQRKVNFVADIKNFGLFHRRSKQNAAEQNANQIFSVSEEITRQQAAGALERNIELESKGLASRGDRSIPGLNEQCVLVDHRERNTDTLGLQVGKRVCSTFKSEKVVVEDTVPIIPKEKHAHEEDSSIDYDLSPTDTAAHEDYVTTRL
Description: mouse TRPC4 channel inhibitors, dose response, cell-based, HEK293 TRPC4/mu-opioid, Fluo-4 calcium (AID 434942).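 Note: potency of inhibitors blocking the TRPC4 calcium response.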 The format is functional.

A further experiment deals with T5, Bcl-2-like protein 10 (Homo sapiens, UniProt Q9HD36).
T5 sequence (Q9HD36 whole entry): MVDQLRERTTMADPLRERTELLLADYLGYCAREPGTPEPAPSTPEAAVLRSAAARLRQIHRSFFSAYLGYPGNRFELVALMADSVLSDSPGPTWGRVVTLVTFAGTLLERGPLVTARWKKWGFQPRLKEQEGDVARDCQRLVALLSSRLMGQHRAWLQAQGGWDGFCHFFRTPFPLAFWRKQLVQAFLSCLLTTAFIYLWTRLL
The experiment in a line: Biochemical TR3 FP assay of Bcl-B inhibitor potency, EC50 (AID 1243). The format is functional.

The target of experiment [7] is T6, Neuropeptides B/W receptor type 1 (Homo sapiens, UniProt P48145).
T6 sequence (P48145 whole entry): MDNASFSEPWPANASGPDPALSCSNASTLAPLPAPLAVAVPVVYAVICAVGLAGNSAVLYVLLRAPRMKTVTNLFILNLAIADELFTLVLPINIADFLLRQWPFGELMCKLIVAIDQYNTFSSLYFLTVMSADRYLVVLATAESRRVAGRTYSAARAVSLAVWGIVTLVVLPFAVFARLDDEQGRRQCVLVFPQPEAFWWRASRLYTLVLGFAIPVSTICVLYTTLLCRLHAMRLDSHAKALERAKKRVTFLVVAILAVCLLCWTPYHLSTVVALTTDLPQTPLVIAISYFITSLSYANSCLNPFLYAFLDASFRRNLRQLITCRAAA
The experiment in a line: Fluorescence-based dose response cell-based high throughput screening assay to identify antagonists of the G-protein coupled receptor 7 (GPR7). [Related pubchem assays: 1952 (Screening assay (GPR7 antagonists).), 1880 (Summary AID.)]. The format is functional.

Experiment [8] deals with Melanin-concentrating hormone receptor 1 (Homo sapiens, UniProt Q99705). The experiment in a line: Fluorescence-based counterscreen for antagonists of the G-protein coupled receptor 7 (GPR7): cell-based high throughput dose response assay to identify antagonists of the melanin-concentrating hormone receptor 1 (MCHR1). The format is functional.
Chain of Melanin-concentrating hormone receptor 1 (Q99705 whole entry): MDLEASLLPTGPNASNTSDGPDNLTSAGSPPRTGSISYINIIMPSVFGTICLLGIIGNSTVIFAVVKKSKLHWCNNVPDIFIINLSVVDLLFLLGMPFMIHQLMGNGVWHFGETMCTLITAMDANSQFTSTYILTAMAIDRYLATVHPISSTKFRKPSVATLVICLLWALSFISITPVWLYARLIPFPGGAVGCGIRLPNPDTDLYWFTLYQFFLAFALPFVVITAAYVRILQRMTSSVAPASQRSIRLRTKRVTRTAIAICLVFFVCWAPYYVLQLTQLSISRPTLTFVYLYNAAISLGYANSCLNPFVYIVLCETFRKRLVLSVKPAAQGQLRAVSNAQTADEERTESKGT
The target in the next experiment is Cytochrome P450 2C9 (Homo sapiens, UniProt P11712). As to conditions: Potency.
Chain of Cytochrome P450 2C9 (P11712 whole entry): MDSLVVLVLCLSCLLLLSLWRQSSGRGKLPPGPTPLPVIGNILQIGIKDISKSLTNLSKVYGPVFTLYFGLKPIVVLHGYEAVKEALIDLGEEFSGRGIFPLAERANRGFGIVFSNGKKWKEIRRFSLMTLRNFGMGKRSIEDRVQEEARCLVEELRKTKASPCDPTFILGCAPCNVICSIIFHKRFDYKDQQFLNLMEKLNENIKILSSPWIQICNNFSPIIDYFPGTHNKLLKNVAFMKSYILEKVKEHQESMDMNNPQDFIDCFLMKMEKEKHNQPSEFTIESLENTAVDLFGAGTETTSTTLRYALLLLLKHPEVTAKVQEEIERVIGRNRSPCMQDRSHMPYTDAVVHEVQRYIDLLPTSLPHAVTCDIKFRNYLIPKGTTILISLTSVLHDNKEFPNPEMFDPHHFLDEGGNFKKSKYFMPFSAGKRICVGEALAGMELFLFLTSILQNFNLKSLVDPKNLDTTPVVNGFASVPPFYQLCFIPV
Experiment [9] concerns the target Neuropeptide Y receptor type 1 (Homo sapiens, UniProt P25929). The experiment in a line: Fluorescence-based counterscreen for agonists of NPY-Y2: cell-based high-throughput dose response assay for agonists of NPY-Y1. The format is functional.
Experiment [10] concerns the target Neuropeptide Y receptor type 2 (Homo sapiens, UniProt P49146). Description: Fluorescence-based cell-based high-throughput dose response assay for agonists of NPY-Y2. [Related pubchem assays: 1703 (Screening assay (CNGC inhibitors).), 1359 (Screening assay (NPY-Y2 potentiators or agonists).), 1304 (Screening assay (NPY-Y1 potentiators or agonists).), 1710 (Screening assay (NPY-Y2 agonists).), 1791 (Summary AID.)]. The format is functional.

A further experiment deals with HEK293. The experiment in a line: Fluorescence-based counterscreen for potentiators or agonists of NPY-Y2: cell-based high-throughput dose response assay to identify inhibitors of cyclic nucleotide gated ion channel (CNGC) activity. In this assay, the parental HEK293 cell line transfected with a cyclic-nucleotide gated ion channel (CNGC)-based cAMP sensor is used to measure inhibition of isoproterenol-induced CNGC activity by test compound. It is filed as functional. As to conditions: Homo sapiens.

Chain of Neuropeptide Y receptor type 2 (P49146 whole entry): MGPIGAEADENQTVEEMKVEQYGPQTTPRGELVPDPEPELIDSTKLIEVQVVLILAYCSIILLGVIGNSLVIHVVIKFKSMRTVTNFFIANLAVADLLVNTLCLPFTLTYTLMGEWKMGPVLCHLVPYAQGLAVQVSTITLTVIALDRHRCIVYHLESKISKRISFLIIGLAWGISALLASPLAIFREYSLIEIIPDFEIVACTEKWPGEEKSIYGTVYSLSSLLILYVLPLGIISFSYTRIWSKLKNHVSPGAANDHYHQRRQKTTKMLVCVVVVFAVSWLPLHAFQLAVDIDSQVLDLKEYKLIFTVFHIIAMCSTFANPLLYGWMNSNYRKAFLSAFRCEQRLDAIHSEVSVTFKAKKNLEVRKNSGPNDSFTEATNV
Chain of Neuropeptide Y receptor type 1 (P25929 whole entry): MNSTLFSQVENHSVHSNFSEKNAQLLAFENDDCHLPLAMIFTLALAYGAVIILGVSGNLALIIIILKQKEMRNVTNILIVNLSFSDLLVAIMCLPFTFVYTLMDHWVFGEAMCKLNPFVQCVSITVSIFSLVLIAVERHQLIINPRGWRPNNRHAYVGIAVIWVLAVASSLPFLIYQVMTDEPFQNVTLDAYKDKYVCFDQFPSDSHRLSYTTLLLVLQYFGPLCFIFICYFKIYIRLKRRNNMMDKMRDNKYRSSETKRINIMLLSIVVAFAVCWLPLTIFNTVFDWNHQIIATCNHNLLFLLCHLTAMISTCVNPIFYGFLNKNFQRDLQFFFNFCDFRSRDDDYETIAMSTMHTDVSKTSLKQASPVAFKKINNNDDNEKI

As usually defined, the EC50 is the concentration giving half of the maximal effect. For orientation: IC50 means the concentration that inhibits the measured activity by half. Regarding `CCOC(=O)c1sc2nc3c(SCC(=O)O)cc(C(=O)c4cc(F)ccc4O)cn3c(=O)c2c1C`, the values for the EC50 (in the experiment with Streptococcus; on Streptokinase A; in experiment [1]) were 141 µM (active), 15.4 µM (active) and 1.86 µM (active), respectively. The IC50 is > 67 µM (not active) in experiment [2], 2.63 µM (active) in experiment [3], 5.11 µM (active) in experiment [4] and 21.9 µM (active) on Aminopeptidase N.
For `Cc1ccc(-c2csc(NC(=O)C3CC=CCC3C(=O)O)c2C(=O)OC(C)C)cc1` (configuration not stated), the results for the IC50 (at Leucine aminopeptidase; in [5]) were 9.13 µM (active) and 39.4 µM (active), respectively. Besides, the EC50 in [6] is 5.96 µM (active).
For the molecule `CN1CCN(CN2C(=O)/C(=N\NC(=O)CSc3nc4ccccc4s3)c3ccccc32)CC1`, the EC50 on Bcl-2-like protein 10 was 12.9 µM (active).
Consider `CCCCNc1nc2ccccc2n1CC(=O)Nc1c(C)cccc1CC`, for which the IC50 in experiment [7] was > 43.8 µM (not active); in experiment [8] it was 31.7 µM (not active).
The term AC50 denotes the concentration giving half of the maximal activity seen. Consider `Cc1ccccc1OC1C=CC(C#Cc2ccc(Br)cc2)OC1CO` (configuration not stated), for which the AC50 on Cytochrome P450 2C9 is 3.98 µM (inconclusive).
With `Fc1ccc2c(c1)/C(=N/Nc1ccccn1)CCS2`, the EC50 in experiment [9] was 12.4 µM (not active); in experiment [10], 11.3 µM (not active); with HEK293 it was 7.7 µM (active).

The values above are taken from ChEMBL document CHEMBL1201862, “PubChem BioAssay data set” (2004).
